In the test the target is PI3K delta (Homo sapiens, UniProt O00329). Nature of the test: Luciferase-coupled chemiluminescence kinase assay (ATP consumption, KinaseGlo). Type of test: biochemical. The procedure, abridged:
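ATP consumption measured by KinaseGlo luciferase chemiluminescence after a 2 h reaction at ambient temperature, with ATP at or below the kinase KM. Ten inhibitor concentrations per curve; IC50 from four-parameter nonlinear regression.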
Background: Kinase-Glo measures the ATP left after a reaction by luminescence.

Sequence of PI3K delta (O00329 whole entry): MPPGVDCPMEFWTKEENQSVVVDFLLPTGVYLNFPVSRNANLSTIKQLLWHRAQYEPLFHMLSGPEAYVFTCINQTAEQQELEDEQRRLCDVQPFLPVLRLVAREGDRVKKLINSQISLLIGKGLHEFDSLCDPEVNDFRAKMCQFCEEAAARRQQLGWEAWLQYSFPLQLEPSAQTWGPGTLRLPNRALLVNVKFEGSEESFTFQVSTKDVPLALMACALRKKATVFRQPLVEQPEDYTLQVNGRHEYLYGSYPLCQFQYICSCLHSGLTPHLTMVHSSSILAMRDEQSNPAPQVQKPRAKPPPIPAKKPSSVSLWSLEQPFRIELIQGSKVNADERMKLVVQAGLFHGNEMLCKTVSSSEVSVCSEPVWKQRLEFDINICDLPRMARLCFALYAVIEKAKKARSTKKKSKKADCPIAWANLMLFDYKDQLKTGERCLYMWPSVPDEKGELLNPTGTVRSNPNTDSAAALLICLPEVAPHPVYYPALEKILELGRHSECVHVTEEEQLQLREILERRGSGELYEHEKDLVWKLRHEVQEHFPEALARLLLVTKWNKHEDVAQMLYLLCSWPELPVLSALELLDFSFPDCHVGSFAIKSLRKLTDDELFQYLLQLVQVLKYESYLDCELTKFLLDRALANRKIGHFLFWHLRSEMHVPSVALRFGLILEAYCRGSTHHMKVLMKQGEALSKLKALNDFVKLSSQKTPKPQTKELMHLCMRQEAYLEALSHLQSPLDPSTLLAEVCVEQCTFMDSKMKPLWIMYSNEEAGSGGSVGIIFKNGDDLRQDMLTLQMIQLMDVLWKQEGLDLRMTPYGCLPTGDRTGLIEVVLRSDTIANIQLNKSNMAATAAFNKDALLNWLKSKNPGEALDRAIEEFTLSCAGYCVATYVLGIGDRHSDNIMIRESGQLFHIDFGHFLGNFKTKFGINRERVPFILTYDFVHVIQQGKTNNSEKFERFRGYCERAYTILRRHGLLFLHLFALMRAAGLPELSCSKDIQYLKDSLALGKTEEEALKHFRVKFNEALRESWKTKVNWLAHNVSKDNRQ
Sequence of PI3K delta (P27986 whole entry partner): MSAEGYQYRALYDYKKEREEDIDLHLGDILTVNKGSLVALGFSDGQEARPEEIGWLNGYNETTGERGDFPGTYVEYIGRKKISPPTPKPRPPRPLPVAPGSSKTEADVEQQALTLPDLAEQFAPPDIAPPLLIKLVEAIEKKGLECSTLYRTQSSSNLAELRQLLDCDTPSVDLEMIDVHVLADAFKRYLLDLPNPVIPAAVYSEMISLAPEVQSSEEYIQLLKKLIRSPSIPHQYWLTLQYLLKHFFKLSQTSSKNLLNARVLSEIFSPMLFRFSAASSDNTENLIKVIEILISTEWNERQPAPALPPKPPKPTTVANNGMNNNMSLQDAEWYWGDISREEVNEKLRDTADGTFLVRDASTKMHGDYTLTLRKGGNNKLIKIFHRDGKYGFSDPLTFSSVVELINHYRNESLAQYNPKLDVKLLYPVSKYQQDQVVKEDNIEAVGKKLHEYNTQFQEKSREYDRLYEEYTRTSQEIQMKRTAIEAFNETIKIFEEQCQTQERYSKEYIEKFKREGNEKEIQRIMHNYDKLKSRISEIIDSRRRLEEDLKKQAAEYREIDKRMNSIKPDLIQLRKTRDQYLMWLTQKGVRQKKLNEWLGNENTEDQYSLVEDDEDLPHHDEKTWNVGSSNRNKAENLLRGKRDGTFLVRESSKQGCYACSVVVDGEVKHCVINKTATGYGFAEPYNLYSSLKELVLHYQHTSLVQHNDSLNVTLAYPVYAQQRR

As a reminder, the IC50 is the midpoint of a concentration-inhibition curve. Low values mean greater potency, high ones weaker potency. `Cn1c(C(=O)NCC2CC2)nc2c(N3CCC4(CC3)Nc3ccccc3NC4=O)ncnc21` [Compound 249, N-(cyclopropylmethyl)-9-methyl-6-(3′-oxo-3′,4′-dihydro-1H,1′H-spiro[piperidine-4,2′-quinoxalin]-1-yl)-9H-purine-8-carboxamide]: the half-inhibitory concentration (IC50) is 0.5 to 1.5 µM.

Compound `CCn1cc(-c2nc3c(N4CCC5(CC4)C(=O)Nc4ccccc45)ncnc3n2CC)cn1` [Compound 250, 1′-[9-ethyl-8-(1-ethyl-1H-pyrazol-4-yl)-9H-purin-6-yl]spiro[indole-3,4′-piperidin]-2(1H)-one] had an IC50 of less than 0.05 µM.

With `CCCn1cc(-c2nc3c(N4CCC5(CC4)C(=O)Nc4ccccc45)ncnc3n2CC)cn1` [Compound 251, 1′-[9-ethyl-8-(1-propyl-1H-pyrazol-4-yl)-9H-purin-6-yl]spiro[indole-3,4′-piperidin]-2(1H)-one], the IC50 was less than 0.05 µM.

In the case of `CCn1c(-c2cn[nH]c2)nc2c(N3CCC4(CC3)C(=O)Nc3ccccc34)ncnc21` [Compound 252, 1′-[9-ethyl-8-(1H-pyrazol-4-yl)-9H-purin-6-yl]spiro[indole-3,4′-piperidin]-2(1H)-one], the concentration for half-maximal inhibition (IC50) was less than 0.05 µM.

The compound `Cn1c(C(=O)NCC2CC2)nc2c(N3CCCC(n4c(=O)[nH]c5ccccc54)C3)ncnc21` (stereo not drawn) [Compound 256, N-(cyclopropylmethyl)-9-methyl-6-[3-(2-oxo-2,3-dihydro-1H-benzimidazol-1-yl)piperidin-1-yl]-9H-purine-8-carboxamide] had an IC50 of 0.25 to 0.5 µM.

Compound `Cn1c(-n2cnc3ccccc32)nc2c(N3CCC(n4c(=O)[nH]c5ccccc54)CC3)ncnc21` [Compound 259, 1-{1-[8-(1H-benzimidazol-1-yl)-9-methyl-9H-purin-6-yl]piperidin-4-yl}-1,3-dihydro-2H-benzimidazol-2-one] had an IC50 of less than 0.05 µM.

The compound `CCn1c(-c2cnn(C)c2C)nc2c(N3CCC(n4c(=O)[nH]c5ccccc54)CC3)ncnc21` [Compound 260, 1-{1-[8-(1,5-dimethyl-1H-pyrazol-4-yl)-9-ethyl-9H-purin-6-yl]piperidin-4-yl}-1,3-dihydro-2H-benzimidazol-2-one] came in with an IC50 of less than 0.05 µM.

`CCn1c(-c2cnn(C)c2C)nc2c(N3CCC4(CC3)C(=O)Nc3ccccc34)ncnc21` [Compound 261, 1′-[8-(1,5-dimethyl-1H-pyrazol-4-yl)-9-ethyl-9H-purin-6-yl]spiro[indole-3,4′-piperidin]-2(1H)-one] yielded an IC50 of less than 0.05 µM.

In turn, `Cn1c(-c2cn[nH]c2C(F)(F)F)nc2c(N3CCC(n4c(=O)[nH]c5ccccc54)CC3)ncnc21` [Compound 262, 1-(1-{9-methyl-8-[5-(trifluoromethyl)-1H-pyrazol-4-yl]-9H-purin-6-yl}piperidin-4-yl)-1,3-dihydro-2H-benzimidazol-2-one] displayed an IC50 of 0.05 to 0.25 µM.

For the compound `Cn1cc(-c2nc3c(N4CCC(C#N)(c5ccccc5)CC4)ncnc3n2C)cn1` [Compound 263, 1-[9-Methyl-8-(1-methyl-1H-pyrazol-4-yl)-9H-purin-6-yl]-4-phenylpiperidine-4-carbonitrile], the half-maximal inhibitory concentration (IC50) lay within 0.05 to 0.25 µM.

As for `Cn1c(C(=O)NCC2CC2)nc2c(N3CCN(C4=NS(=O)(=O)c5ccccc54)CC3)ncnc21` [Compound 264, N-(cyclopropylmethyl)-6-[4-(1,1-dioxido-1,2-benzisothiazol-3-yl)piperazin-1-yl]-9-methyl-9H-purine-8-carboxamide], the IC50 was in the range of 0.5 to 1.5 µM.

Regarding `Cn1c(-c2ccoc2)nc2c(N3CCC(n4c(=O)[nH]c5ccccc54)CC3)ncnc21` [Compound 265, 1-[1-(8-furan-3-yl-9-methyl-9H-purin-6-yl)piperidin-4-yl]-1,3-dihydro-2H-benzimidazol-2-one], the IC50 lay within 0.05 to 0.25 µM.

In the case of `Cn1c(-c2ccncc2)nc2c(N3CCC(n4c(=O)[nH]c5ccccc54)CC3)ncnc21` [Compound 266, 1-[1-(9-methyl-8-pyridin-4-yl-9H-purin-6-yl)piperidin-4-yl]-1,3-dihydro-2H-benzimidazol-2-one], the half-maximal inhibitory concentration (IC50) was 0.25 to 0.5 µM.

In turn, `Cn1c(-c2ccccc2)nc2c(N3CCC(n4c(=O)[nH]c5ccccc54)CC3)ncnc21` [Compound 267, 1-[1-(9-methyl-8-phenyl-9H-purin-6-yl)piperidin-4-yl]-1,3-dihydro-2H-benzimidazol-2-one] registered a 50% inhibitory concentration (IC50) of 0.5 to 1.5 µM.

The compound `Cn1c(-c2cccnc2)nc2c(N3CCC(n4c(=O)[nH]c5ccccc54)CC3)ncnc21` [Compound 268, 1-[1-(9-Methyl-8-pyridin-3-yl-9H-purin-6-yl)piperidin-4-yl]-1,3-dihydro-2H-benzimidazol-2-one] showed a half-maximal inhibitory concentration (IC50) of less than 0.05 µM.

For the compound `Cn1cc(-c2nc3c(N4CCC(n5c(=O)[nH]c6ncccc65)CC4)ncnc3n2C)cn1` [Compound 269, 1-{1-[9-methyl-8-(1-methyl-1H-pyrazol-4-yl)-9H-purin-6-yl]piperidin-4-yl}-1,3-dihydro-2H-imidazo[4,5-b]pyridin-2-one], the IC50 was less than 0.05 µM.

The compound `CCn1c(C(=O)NCC2CC2)nc2c(N3CCC(n4c(=O)[nH]c5ncccc54)CC3)ncnc21` [Compound 270, N-(cyclopropylmethyl)-9-ethyl-6-[4-(2-oxo-2,3-dihydro-1H-imidazo[4,5-b]pyridin-1-yl)piperidin-1-yl]-9H-purine-8-carboxamide] gave an IC50 of less than 0.05 µM.

Consider `Cn1c(-c2cncnc2)nc2c(N3CCC(n4c(=O)[nH]c5ccccc54)CC3)ncnc21` [Compound 271, 1-[1-(9-methyl-8-pyrimidin-5-yl-9H-purin-6-yl)piperidin-4-yl]-1,3-dihydro-2H-benzimidazol-2-one], for which the concentration for half-maximal inhibition (IC50) was less than 0.05 µM.

With `Cn1ncc(-c2nc3c(N4CCC(n5c(=O)[nH]c6ccccc65)CC4)ncnc3n2C)c1Cl` [Compound 272, 1-{1-[8-(5-chloro-1-methyl-1H-pyrazol-4-yl)-9-methyl-9H-purin-6-yl]piperidin-4-yl}-1,3-dihydro-2H-benzimidazol-2-one], the half-maximal inhibitory concentration (IC50) is less than 0.05 µM.

In turn, `Cn1c(C(=O)NCC(C)(C)O)nc2c(N3CCC(n4c(=O)[nH]c5ccccc54)CC3)ncnc21` [Compound 273, N-(2-hydroxy-2-methylpropyl)-9-methyl-6-[4-(2-oxo-2,3-dihydro-1H-benzimidazol-1-yl)piperidin-1-yl]-9H-purine-8-carboxamide] had an IC50 of less than 0.05 µM.

For `COC(=O)C1(c2ccccc2)CCN(c2ncnc3c2nc(-c2cnn(C)c2)n3C)CC1` [Compound 274, methyl 1-[9-methyl-8-(1-methyl-1H-pyrazol-4-yl)-9H-purin-6-yl]-4-phenylpiperidine-4-carboxylate], the half-maximal inhibitory concentration (IC50) lay within 0.5 to 1.5 µM.

The compound `Cn1c(C(=O)NCC2CC2)nc2c(N3CCC(C#N)(c4ccccc4)CC3)ncnc21` [Compound 275, 6-(4-cyano-4-phenylpiperidin-1-yl)-N-(cyclopropylmethyl)-9-methyl-9H-purine-8-carboxamide] returned an IC50 of 0.05 to 0.25 µM.

On to `CN(C)CCOc1cccc2c1[nH]c(=O)n2C1CCN(c2ncnc3c2nc(C(=O)NCC2CC2)n3C)CC1` [Compound 276, N-(cyclopropylmethyl)-6-[4-(4-{[2-(dimethylamino)ethyl]oxy}-2-oxo-2,3-dihydro-1H-benzimidazol-1-yl)piperidin-1-yl]-9-methyl-9H-purine-8-carboxamide], for which the concentration for half-maximal inhibition (IC50) fell in the range of 0.25 to 0.5 µM.

`CC1CC(n2c(=O)[nH]c3ccccc32)CCN1c1ncnc2c1nc(C(=O)NCC1CC1)n2C` (stereo not drawn) [Compound 277, N-(cyclopropylmethyl)-9-methyl-6-[2-methyl-4-(2-oxo-2,3-dihydro-1H-benzimidazol-1-yl)piperidin-1-yl]-9H-purine-8-carboxamide] registered an IC50 of 0.05 to 0.25 µM.

The values are drawn from patent US20140058103A1, “Inhibitors of PI3K-Delta and Methods of Their Use and Manufacture” (Exelixis, Inc., priority 2010, published 2014).
